The source of these data is PubChem BioAssay (NCI).

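Growth conditions: 96-well plates. Treatment: test compound, 48 hours, 5 concentrations. Analysis: linear interpolation between bracketing concentrations; unreached endpoints set to highest concentration. At the GI50, growth is halved. TGI: concentration producing complete growth inhibition.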

Among the test systems are 786-0 renal; ACHN renal; COLO 205 colon; EKVX NSCLC; HCT-116 colon; HCT-15 colon; HOP-62 NSCLC; KM12 colon; MALME-3M melanoma; SN12C renal.
Holding throughout (assay): NCI anticancer screen, dose series, 48 h

As to `CC(C)(C)OC(=O)NC(CO)c1cccc(OCc2ccccc2)c1` (stereo not given), the TGI with 786-0 renal, in the test with ACHN renal, in the test with COLO 205 colon, in the test with EKVX NSCLC, in the test with HCT-116 colon and in the test with HCT-15 colon was over 100 µM throughout. Also, the TGI with HOP-62 NSCLC, in the test with KM12 colon, with MALME-3M melanoma and in the test on SN12C renal was over 100 µM throughout.
As for `Cc1cc(Oc2ccc3nc(COc4ccc(CC5SC(=O)NC5=O)cc4)n(C)c3c2)cc(C)c1N` (stereo not given), the GI50 was 49900 nM in the test on 786-0 renal; 48.9 µM in the test on ACHN renal; 32100 nM with COLO 205 colon; 39 µM in the test on EKVX NSCLC; 26700 nM in the test on HCT-116 colon; 29100 nM in the test with HCT-15 colon. Moreover, the GI50 in the test on HOP-62 NSCLC is 48700 nM; with KM12 colon, 26500 nM; in the test with MALME-3M melanoma, over 53.3 µM; with SN12C renal, 44.1 µM. Moreover, the TGI in the test on 786-0 renal is over 100 µM; in the test with ACHN renal, over 100 µM; with COLO 205 colon it was over 100 µM; with EKVX NSCLC, over 100 µM; in the test with HCT-116 colon, over 85.3 µM; in the test on HCT-15 colon, over 87.8 µM. The TGI with HOP-62 NSCLC was over 100 µM; in the test with KM12 colon it was over 76.2 µM; with MALME-3M melanoma, over 100 µM; with SN12C renal it was over 100 µM.
For the compound `O=S(=O)(Nc1cc(Cl)ccc1Cl)c1ccc(-c2cnc(C3CC3)o2)cc1`, the GI50 in the test on 786-0 renal is 539 nM; with ACHN renal, 4.1 µM; in the test on COLO 205 colon it was 1840 nM; in the test on EKVX NSCLC, 5.24 µM; in the test on HCT-116 colon it was 453 nM; in the test with HCT-15 colon, 608 nM. In addition, the GI50 in the test with HOP-62 NSCLC is 1640 nM; in the test on KM12 colon, 704 nM; with MALME-3M melanoma it was 10.8 µM; in the test on SN12C renal it was 4.32 µM. Moreover, the TGI is 20.9 µM in the test on 786-0 renal; 76.6 µM with ACHN renal; 13.4 µM in the test with COLO 205 colon; 85.4 µM in the test on EKVX NSCLC; 15 µM in the test on HCT-116 colon; over 100 µM in the test on HCT-15 colon. Moreover, the TGI is 27.5 µM in the test with HOP-62 NSCLC, 24.4 µM in the test with KM12 colon, 57.6 µM in the test with MALME-3M melanoma and over 100 µM with SN12C renal.
For the compound `COC(=O)/C=C/c1cn(C(C)=O)c2ccc(Br)cc12`, the GI50 in the test with 786-0 renal is 17400 nM; in the test with ACHN renal, 29.4 µM; in the test on COLO 205 colon it was 24800 nM; in the test with EKVX NSCLC it was 28.2 µM; in the test on HCT-116 colon it was 32600 nM; in the test on HCT-15 colon it was 23400 nM. For the same compound, the GI50 with HOP-62 NSCLC is 25000 nM; with KM12 colon it was 25300 nM; with MALME-3M melanoma, 24.9 µM; with SN12C renal it was 31.6 µM. In addition, the TGI in the test with 786-0 renal is 39.2 µM; in the test on ACHN renal it was over 100 µM; in the test on COLO 205 colon, over 85 µM; with EKVX NSCLC, over 100 µM; in the test with HCT-116 colon, over 100 µM; with HCT-15 colon it was over 100 µM. The TGI in the test on HOP-62 NSCLC is over 73.5 µM; in the test on KM12 colon it was 79.5 µM; with MALME-3M melanoma it was over 88.8 µM; in the test with SN12C renal, over 100 µM.
On to `COc1ccc2nc3ccccc3c(NCCCN(C)CCCl)c2c1`, for which the TGI came out at 1.07 µM in the test with 786-0 renal; 0.695 µM in the test on ACHN renal; 1.65 µM in the test with COLO 205 colon; 3.15 µM in the test on EKVX NSCLC; 1.36 µM in the test on HCT-116 colon; 8.29 µM in the test on HCT-15 colon. Further, the TGI was 3.05 µM in the test on HOP-62 NSCLC, 2.06 µM in the test on KM12 colon, 1.55 µM in the test on MALME-3M melanoma and 1.55 µM in the test with SN12C renal.
Turning to `COC(=O)[C@H](Cc1ccc(O)cc1)NC(=O)[C@@H](OC)[C@@H]1Cc2cc3cc(OC4CC(OC5CC(O)C(O)C(C)O5)C(O)C(C)O4)c(C)c(O)c3c(O)c2C(=O)[C@H]1OC1CC(OC2CC(OC3CC(C)(O)C(O)C(C)O3)C(O)C(C)O2)C(O)C(C)O1` (stereo not given in full), the GI50 in the test with 786-0 renal was 160 nM; in the test on ACHN renal it was 0.405 µM; with COLO 205 colon it was 93.2 nM; with EKVX NSCLC it was 0.152 µM; with HCT-116 colon it was 17.5 nM; in the test on HCT-15 colon, 1950 nM. Besides, the GI50 with HOP-62 NSCLC is 106 nM; with KM12 colon, 106 nM; in the test with MALME-3M melanoma, 0.0397 µM; in the test with SN12C renal it was 0.0595 µM. The TGI in the test on 786-0 renal was over 25 µM; in the test on ACHN renal it was over 25 µM; in the test on COLO 205 colon, 1.19 µM; in the test on EKVX NSCLC, over 25 µM; in the test on HCT-116 colon it was over 25 µM; in the test with HCT-15 colon, over 25 µM. In addition, the TGI with HOP-62 NSCLC is over 25 µM; with KM12 colon, over 25 µM; in the test on MALME-3M melanoma, 0.492 µM; in the test with SN12C renal, over 25 µM.
As for `O=c1c2ccccc2c2ccccc2c(=O)n1Cc1ccc2c(c1)OCO2`, the TGI in the test with 786-0 renal, with ACHN renal, in the test with COLO 205 colon, in the test with EKVX NSCLC, in the test with HCT-116 colon and with HCT-15 colon was over 100 µM in each case. Also, the TGI in the test with HOP-62 NSCLC, with KM12 colon, with MALME-3M melanoma and with SN12C renal was over 100 µM each time.
As for `Cc1ncsc1-c1ccc(CNC(=O)[C@@H]2C[C@@H](O)CN2C(=O)[C@@H](NC(=O)C2(C#N)CC2)C(C)(C)C)cc1`, the GI50 with 786-0 renal is over 100000 nM; in the test with ACHN renal, over 100 µM; in the test with COLO 205 colon, over 100000 nM; in the test on EKVX NSCLC, 35.2 µM; in the test on HCT-116 colon, over 100000 nM; in the test on HCT-15 colon it was over 100000 nM. The GI50 with HOP-62 NSCLC is over 100000 nM; in the test with KM12 colon it was over 100000 nM; in the test with MALME-3M melanoma, over 100 µM; in the test on SN12C renal it was over 100 µM. Besides, the TGI in the test on 786-0 renal, with ACHN renal, in the test with COLO 205 colon, with EKVX NSCLC, in the test on HCT-116 colon and in the test with HCT-15 colon was over 100 µM each time. Further, the TGI in the test on HOP-62 NSCLC, in the test on KM12 colon, with MALME-3M melanoma and in the test on SN12C renal was over 100 µM throughout.
For the compound `CCc1ccc2c(c1)N(CCO)C1=C(C(=O)OC1)C2c1cccc(Cl)c1` (stereo not given), the GI50 in the test on 786-0 renal was 736 nM; with ACHN renal it was 1.24 µM; in the test with COLO 205 colon, 522 nM; in the test on EKVX NSCLC, 5.33 µM; in the test on HCT-116 colon, 498 nM; with HCT-15 colon, 605 nM. Further, the GI50 in the test with HOP-62 NSCLC was 774 nM; with KM12 colon it was 433 nM; in the test on MALME-3M melanoma, 2.82 µM; in the test with SN12C renal, 2.03 µM. Also, the TGI with 786-0 renal came to 19 µM; in the test on ACHN renal it was 31.6 µM; in the test on COLO 205 colon, 2.63 µM; in the test on EKVX NSCLC, 31.1 µM; in the test on HCT-116 colon, 13.1 µM; with HCT-15 colon, 17.9 µM. Moreover, the TGI with HOP-62 NSCLC amounted to 15.8 µM; in the test with KM12 colon, 12.6 µM; with MALME-3M melanoma it was 27.4 µM; in the test with SN12C renal it was 19 µM.
